Assay results from publication PMC4182912 (Journal of medicinal chemistry, 2008).

Assays:
[1] = test system: P-glycoprotein (P-gp) efflux pumps; conditions: cited from earlier work
recombinant hCB1r = recombinant hCB1r (Homo sapiens, UniProt P21554); format: biochemical
Sequence of recombinant hCB1r (P21554 whole entry): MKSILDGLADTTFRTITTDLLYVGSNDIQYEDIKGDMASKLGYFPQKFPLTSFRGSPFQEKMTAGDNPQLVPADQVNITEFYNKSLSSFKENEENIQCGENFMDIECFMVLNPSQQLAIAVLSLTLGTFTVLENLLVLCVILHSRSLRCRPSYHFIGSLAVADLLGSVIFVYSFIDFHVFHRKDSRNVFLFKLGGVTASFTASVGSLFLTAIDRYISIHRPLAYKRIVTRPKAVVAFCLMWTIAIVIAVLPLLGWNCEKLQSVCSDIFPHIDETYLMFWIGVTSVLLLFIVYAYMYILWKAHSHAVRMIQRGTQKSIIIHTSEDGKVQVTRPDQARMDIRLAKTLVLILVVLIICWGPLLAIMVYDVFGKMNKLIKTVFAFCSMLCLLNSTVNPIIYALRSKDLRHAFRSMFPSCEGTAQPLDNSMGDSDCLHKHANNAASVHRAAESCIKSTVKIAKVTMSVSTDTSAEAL

Row | Structure (SMILES) | substrate behavior for P-gp efflux pumps [1] | eudismic ratio (CB1 receptor affinity, (-)- vs (+)-enantiomer) (recombinant hCB1r)
1 | CN=C(NS(=O)(=O)c1ccc(Cl)cc1)N1C[C@H](c2ccccc2)C(c2ccc(Cl)cc2)=N1 [Ligand 3, (4S)-3-(4-chlorophenyl)-N-methyl-N’-[(4-chlorophenyl)sulfonyl]-4-phenyl-4,5-dihydro-1H-pyrazole-1-carboxamidine] | little to no substrate behavior | 
2 | N#Cc1ccc(S(=O)(=O)N=C(N)N2CC(c3ccccc3)C(c3ccc(Cl)cc3)=N2)cc1 (stereo not drawn) [Ligand 12a, 3-(4-Chlorophenyl)-N’-[(4-cyanophenyl)sulfonyl]-4-phenyl-4,5-dihydro-1H-pyrazole-1-carboxamidine] |  | about 35
3 | NC(=NS(=O)(=O)c1ccc(I)cc1)N1CC(c2ccccc2)C(c2ccc(Cl)cc2)=N1 (stereo not drawn) [Ligand 12c, 3-(4-Chlorophenyl)-N’-[(4-iodophenyl)sulfonyl]-4-phenyl-4,5-dihydro-1H-pyrazole-1-carboxamidine] |  | ~56
